Experimental data as given in BindingDB's records for doi:10.1021/jm00060a002 (Merck Reserch Laboratories, 1993).

Target: T1, Gag-Pol polyprotein [588-1027]/[588-1147] (Human immunodeficiency virus 1, UniProt P04585)
T1 construct: 588-1027; 588-1147
Assay: Tested for inhibition against HIV-1 RT (used (poly)rC-(oligo)dG as the template)

Row | SMILES | IC50
1 | CCc1cc(CCc2nc3c(o2)CCCC3)c(=O)[nH]c1C [5-ethyl-6-methyl-3-[2-(4,5,6,7-tetrahydro-1,3-benzoxazol-2-yl)ethyl]-1,2-dihydropyridin-2-one] | 0.058 µM
2 | CCc1cc(CCc2nc3ccccc3o2)c(N)nc1C [3-[2-(1,3-benzoxazol-2-yl)ethyl]-5-ethyl-6-methylpyridin-2-amine] | 100 µM
